Viability data for 79 compounds are collected here from paper PMC12040169 (PLOS Biology, 2025).

Broadly, the viability is a read-out of living cells in per cent, often relative to untreated cells.

This series is described as follows: in vitro. To be noted: human, hela cells, % viability.

Turning to `CC(C)NC(=O)c1sc2ccccc2c1C1CN(C(=O)CC2CCCCC2)CCO1` (stereo not shown) [CBK285869], the viability at 28.5 h, 10 µM was 91.5%.

As to `CCOC(=O)c1cnc2c(C)cc(Cl)cc2c1N1CCN(Cc2ccccc2)CC1` [CBK265975], the viability at 28.5 h, 10 µM was found to be 108%.

Take `COc1ccccc1CNS(=O)(=O)c1ccccc1[N+](=O)[O-]` [CBK261699]: the viability at 28.5 h, 10 µM amounted to 102%.

On to `COc1ccc2cc3c(nc2c1)Sc1nncn1N=C3` [CBK021248], for which the viability at 28.5 h, 10 µM came out at 100%.

Consider `O=C(NCCn1nc(-c2ccco2)ccc1=O)C1CCCCC1` [CBK283743], for which the viability at 28.5 h, 10 µM is 105%.

Regarding `O=c1c2c3c(sc2ncn1CC(O)CO)CCCC3` (stereo not shown) [CBK269448], the viability at 28.5 h, 10 µM was found to be 94.8%.

Take `O=C(CCCOc1ccccc1)Nc1ccc([N+](=O)[O-])cc1` [CBK263690]: the viability at 28.5 h, 10 µM turned out to be 97.9%.

Turning to `Cc1cccc(-n2c(CCc3ccccc3)nnc2SCC(=O)c2ccccc2)c1` [CBK266369], the viability at 28.5 h, 10 µM amounted to 94%.

`CC(C)NC(=O)NC[C@H]1C[C@@H]2CCN1C[C@@H]2c1cc(-c2ccccc2)nn1C` [CBK289097]: the viability at 28.5 h, 10 µM was 84.5%.

For the compound `Cc1cc(C2CCCCCN2C(=O)c2nn(C)cc2Cl)on1` (stereo not shown) [CBK284843], the viability at 28.5 h, 10 µM is 105%.

Turning to `O=C(CSCc1c(Cl)cccc1Cl)Nc1cccc(-c2nnc(-c3ccccc3)o2)c1` [CBK267435], the viability at 28.5 h, 10 µM was determined as 96.7%.

As to `CC1CCCN(C(=O)Cn2ncn3c(cc4ccsc43)c2=O)C1` (stereo not shown) [CBK284245], the viability at 28.5 h, 10 µM was determined as 84.5%.

`CCOc1ccc(C(=O)NC2CC3CCC(C2)N3Cc2ccc(OC)cc2)cc1` (stereo not shown) [CBK121398]: the viability at 28.5 h, 10 µM was 109%.

As to `COC(=O)Nc1nc(Cl)cc(Cl)n1` [CBK027433], the viability at 28.5 h, 10 µM was found to be 93.8%.

For `CCCC1CCN(CC2C=Cc3cc(-c4ccc(S(C)(=O)=O)cc4)ccc3O2)CC1` (stereo not shown) [CBK158647], the viability at 28.5 h, 10 µM was determined as 86.2%.

With `O=C(NC[C@H]1O[C@@H](CC(=O)N2CCN(c3ccc(F)cc3)CC2)[C@H](O)[C@@H]1O)C1CC1` [CBK288921], the viability at 28.5 h, 10 µM was 92.7%.

Consider `COc1ccc(Cl)cc1N1CCN(CCN2CCCCC2)CC1` [CBK126445], for which the viability at 28.5 h, 10 µM was 100%.

As to `Cc1ccc(S(=O)(=O)NCC(C)O)cc1-c1nnc2c3ccccc3c(C)nn12` (stereo not shown) [CBK266614], the viability at 28.5 h, 10 µM stood at 106%.

Turning to `CCNc1ncc(C(=O)NC(CCn2ccnc2)c2ccccc2)cn1` (stereo not shown) [CBK307066], the viability at 28.5 h, 10 µM came to 110%.

Regarding `Cc1c(C(=O)N2CCNC(=O)C2C(C)C)cnn1-c1ccc(Br)cc1` (stereo not shown) [CBK306472], the viability at 28.5 h, 10 µM was determined as 91.5%.

Regarding `Cc1cc(OCC(=O)Nc2ccccc2CO)cc(C)c1Br` [CBK265094], the viability at 28.5 h, 10 µM came out at 88.2%.

`CC(C)c1ccc(/C=C/C(=O)N[C@H]2CC[C@H](O)CC2)cc1` [CBK149644]: the viability at 28.5 h, 10 µM stood at 106%.

In the case of `COC(=O)c1sc(NC(=S)Nc2ccn(C)n2)c(C(=O)OC)c1C` [CBK267078], the viability at 28.5 h, 10 µM came out at 99.5%.

For the compound `COC(=O)c1cccn2cc(CN3CCSC(C)C3)nc12` (stereo not shown) [CBK304958], the viability at 28.5 h, 10 µM amounted to 97.4%.

For `CS(=O)(=O)c1cccc(C(=O)n2c(=O)n(CC3CCCCC3)c3ccccc32)c1` [CBK106520], the viability at 28.5 h, 10 µM came out at 103%.

Take `Cc1ccc2c(c1)C(=O)CC1(CCN(C(=O)OC(C)(C)C)CC1)O2` [CBK283599]: the viability at 28.5 h, 10 µM was determined as 98%.

Regarding `CCN(Cc1nc(-c2ccccc2)no1)C(=O)c1ccoc1C` [CBK270229], the viability at 28.5 h, 10 µM amounted to 89.3%.

In the case of `CC(=O)N1CCCCC[C@@H]2[C@@H]1C[C@@H](Cc1ccccc1)N2C(=O)c1ccccc1` [CBK285576], the viability at 28.5 h, 10 µM worked out at 115%.

For `O=C(CSc1nc2ccccc2c(=O)n1Cc1ccccc1)c1ccc(Br)cc1` [CBK262700], the viability at 28.5 h, 10 µM stood at 93.4%.

With `Cc1cc(C)c2oc(-c3cccc(NC(=O)c4cccc(Cl)c4Cl)c3C)nc2c1` [CBK264005], the viability at 28.5 h, 10 µM came out at 84.2%.

With `COC(=O)c1cc(C)sc1NC(=S)Nc1cnn(Cc2cccc3ccccc23)c1` [CBK267098], the viability at 28.5 h, 10 µM turned out to be 101%.

For `COc1cc(NC(=O)CC2(CC(=O)O)CCCCC2)ccc1N1CCCC1=O` [CBK296637], the viability at 28.5 h, 10 µM was determined as 105%.

Turning to `C/C(=N\NC(=O)CN(c1ccc(C)cc1)S(=O)(=O)c1ccccc1)c1ccc(Cl)cc1` [CBK262229], the viability at 28.5 h, 10 µM was 93.3%.

In the case of `[O-][N+]1=C2CCc3c(no[n+]3[O-])C2(O)CC1N1CCOCC1` (stereo not shown) [CBK261515], the viability at 28.5 h, 10 µM was determined as 112%.

Take `CN1CCCC1c1cccnc1` (stereo not shown) [CBK015659]: the viability at 28.5 h, 10 µM is 94%.

`O=C(O)c1cccn1-c1cc(Cl)cc(Cl)c1` [CBK286932]: the viability at 28.5 h, 10 µM stood at 98.8%.

For the compound `c1csc(-c2nn3c(Cn4nnc5ccccc54)nnc3s2)c1` [CBK268204], the viability at 28.5 h, 10 µM turned out to be 87.7%.

For the compound `CCN(CC)C(=O)c1cccc(NS(=O)(=O)c2ccc(C)c(C(=O)O)c2)c1` [CBK296665], the viability at 28.5 h, 10 µM is 111%.

In the case of `COCCCNC(=O)Cn1c(-c2ccc(F)cc2)cc2cccnc21` [CBK285385], the viability at 28.5 h, 10 µM is 88.5%.

Consider `CN(C)c1cccc(-c2cncc(Nc3cccc(C(F)(F)F)c3)n2)c1` [CBK065786], for which the viability at 28.5 h, 10 µM amounted to 100%.

As to `Cc1ccc(S(=O)(=O)N(CC(=O)NCC2CCCO2)c2ccccc2)cc1` (stereo not shown) [CBK264140], the viability at 28.5 h, 10 µM stood at 90.9%.

On to `Ic1ccc(NCc2cn3ccccc3n2)cc1` [CBK058563], for which the viability at 28.5 h, 10 µM came to 91.4%.

For the compound `Cc1nc2c(c(=O)[nH]1)CCN(Cc1cc(C)n(C3CC3)c1C)C2` [CBK282338], the viability at 28.5 h, 10 µM stood at 89.2%.

In the case of `COc1ccc(F)cc1-c1ccc(CC2(C(=O)NC3CCCCC3)CCOCC2)cc1` [CBK285538], the viability at 28.5 h, 10 µM is 86.6%.

Take `O=C(NCc1ccc(Cl)cc1)N(Cc1cccnc1)Cc1ccc2c(c1)OCO2` [CBK159449]: the viability at 28.5 h, 10 µM came out at 97%.

Regarding `OCCN1CC2(CCN(CCN3CCOCC3)CC2)c2ccccc21` [CBK126766], the viability at 28.5 h, 10 µM was 91.4%.

With `CCOc1ccc(Cl)cc1S(=O)(=O)NCCO` [CBK269996], the viability at 28.5 h, 10 µM was 94%.

Take `CS(=O)(=O)c1ccc(-c2cnc3[nH]c(=O)n(-c4ccc5[nH]ccc5c4)c3n2)cc1` [CBK064691]: the viability at 28.5 h, 10 µM was determined as 96.6%.

In the case of `O=[N+]([O-])c1cccc(-c2cc(NCCc3ccccn3)ncn2)c1` [CBK091087], the viability at 28.5 h, 10 µM amounted to 96.7%.

Turning to `Cc1sc(-c2ccc(Cl)nc2)nc1OC(=O)c1cccs1` [CBK067733], the viability at 28.5 h, 10 µM was determined as 94.5%.

For the compound `Fc1cc(F)cc(-c2nnc(Cc3nc(-c4ccncc4)no3)o2)c1` [CBK288602], the viability at 28.5 h, 10 µM was 98.6%.

Turning to `Cc1nn(C(C)CC(=O)NCc2ccco2)c(C)c1Br` (stereo not shown) [CBK269797], the viability at 28.5 h, 10 µM is 89.5%.

On to `COC(=O)[C@@H](C)NC(=O)[C@H]1CN(C(=O)c2cccnc2)CCN1C(=O)c1cccs1` [CBK289628], for which the viability at 28.5 h, 10 µM worked out at 82.4%.

As for `O=C(Nc1cccnc1)c1c(O)n(Cc2ccccc2)c2ccccc2c1=O` [CBK291206], the viability at 28.5 h, 10 µM turned out to be 110%.

Regarding `Cc1ccc(CC(=O)N2CCc3nn(C(C)C)c(=O)cc3C2)cc1` [CBK284499], the viability at 28.5 h, 10 µM was found to be 93.6%.

For `Cc1nc2c(ccc3nc(NC(=O)c4ccccc4)sc32)s1` [CBK287560], the viability at 28.5 h, 10 µM was 91.7%.

As for `c1ccc(CNc2nc(-c3ccncc3)cs2)cc1` [CBK058609], the viability at 28.5 h, 10 µM was determined as 91%.

On to `NC(=O)c1ccccc1NC(=O)Cc1ccc2c(c1)CCCC2` [CBK298334], for which the viability at 28.5 h, 10 µM is 88.9%.

Turning to `Cc1ccc(S(=O)(=O)NCC(=O)N2CCN(Cc3ccccc3)CC2)cc1` [CBK265991], the viability at 28.5 h, 10 µM came to 104%.

For `CCc1ocnc1C(=O)NC1CCN(c2ncccc2C#N)CC1` [CBK306935], the viability at 28.5 h, 10 µM was determined as 93%.

As to `Cc1ccc(S(=O)(=O)N(CC(=O)O)c2ccc(C(C)C)cc2)cc1` [CBK287116], the viability at 28.5 h, 10 µM stood at 85.3%.

`COC(=O)[C@@H](C)NC(=O)[C@@H]1CN(C(=O)NC(C)C)CCN1C(=O)C1CCCCC1` [CBK289622]: the viability at 28.5 h, 10 µM came to 90.7%.

On to `CN(Cc1nccn1C)c1nccc(N2CCN[C@H]3CS(=O)(=O)C[C@H]32)n1` [CBK307394], for which the viability at 28.5 h, 10 µM worked out at 84.8%.

Take `CCOC(=O)CNS(=O)(=O)c1ccc(C(F)(F)F)cc1[N+](=O)[O-]` [CBK034446]: the viability at 28.5 h, 10 µM stood at 102%.

For `O=C(Nc1ccccc1N1CCCNCC1)c1ccnc2ccccc12` [CBK036325T], the viability at 28.5 h, 10 µM was 83.4%.

As for `O=C1CC(N2CCN(Cc3ccc4c(c3)OCO4)CC2)C(=O)N1c1ccc(Br)cc1` (stereo not shown) [CBK074544], the viability at 28.5 h, 10 µM came to 89.9%.

As for `Nc1cc2c(ncn2[C@@H]2C[C@@H](O)[C@@H](CO)O2)c(=O)[nH]1` [CBK201196], the viability at 28.5 h, 10 µM is 88.1%.

`Clc1ccc(OC/C=C2\Oc3ccc(Cl)cc3C2N2CCOCC2)c(Cl)c1` (stereo not shown) [CBK262753]: the viability at 28.5 h, 10 µM is 94.5%.

As for `c1coc(-c2nccnc2NCc2cccs2)c1` [CBK037340], the viability at 28.5 h, 10 µM came out at 104%.

As for `OCC(CNc1ncnc2nc[nH]c12)Cc1ccccn1` (stereo not shown) [CBK304412], the viability at 28.5 h, 10 µM is 83.4%.

On to `CC(OCc1ccccc1)C(=O)NCC1(N2CCOCC2)CCSC1` (stereo not shown) [CBK305678], for which the viability at 28.5 h, 10 µM was determined as 114%.

Take `N=c1n(CCN2CCCCC2)c2ccccc2n1CC(O)COc1ccc(Cl)cc1Cl` (stereo not shown) [CBK266336C]: the viability at 28.5 h, 10 µM is 31%.

For the compound `Cc1cc(C)nc(N2CCCC(O)(c3nc(C)c(CCOc4ccccc4)s3)CC2)n1` (stereo not shown) [CBK285924], the viability at 28.5 h, 10 µM was determined as 111%.

Turning to `CCOC(=O)N1CCC(NS(=O)(=O)c2cc(Cl)sc2Cl)CC1` [CBK045462], the viability at 28.5 h, 10 µM came out at 86.7%.

In the case of `O=C(CSc1cccs1)Nc1nccs1` [CBK019601], the viability at 28.5 h, 10 µM is 88.7%.

Regarding `O=S(=O)(Nc1nc(-c2sccc2Cl)cs1)c1cc(Cl)ccc1Cl` [CBK014147], the viability at 28.5 h, 10 µM came out at 94.2%.

Turning to `CC1CCN(C(=O)C[C@@H]2O[C@H](CNS(=O)(=O)c3ccccc3)[C@@H](O)[C@H]2O)CC1` [CBK288927], the viability at 28.5 h, 10 µM was 89.7%.

`Cc1cc(C)n(-c2nc3ccccc3nc2N2CCN(S(=O)(=O)c3ccc4ccccc4c3)CC2)n1` [CBK269134]: the viability at 28.5 h, 10 µM was found to be 103%.

In the case of `CC1CCCN(C(=O)CCn2c(-c3ccncc3)cc3cccnc32)C1` (stereo not shown) [CBK282152], the viability at 28.5 h, 10 µM stood at 108%.
